Each block holds one molecule with its values, some of them ahead of it.
How the values were obtained:
[1] = molecular target: T1, human JAK1 (a.a. 837-1142) (Homo sapiens, UniProt P23458); test: In vitro JAK kinase assay (HTRF), JAK1; assay type: biochemical; conditions: measured at 1 mM ATP
T1 construct: human JAK1 (a.a. 837-1142); His tag (N); made in house; host or cells: insect cells (baculovirus)
Protocol: The compound of Formula I herein was tested for inhibitory activity of JAK targets according to the following in vitro assay described in Park et al., Analytical Biochemistry 1999, 269, 94-104. The catalytic domains of human JAK1 (a.a. 837-1142) and JAK2 (a.a. 828-1132) with an N-terminal His tag were expressed using baculovirus in insect cells and purified. The catalytic activity of JAK1 and JAK2 was assayed by measuring the phosphorylation of a biotinylated peptide. The phosphorylated peptide was detected by homogenous time resolved fluorescence (HTRF). IC50s of compounds were measured for each kinase in the 40 microL reactions that contain the enzyme, ATP and 500 nM peptide in 50 mM Tris (pH 7.8) buffer with 100 mM NaCl, 5 mM DTT, and 0.1 mg/mL (0.01%) BSA. For the 1 mM IC50 measurements, ATP concentration in the reactions was 1 mM. Reactions were carried out at room temperature for 1 hr and then stopped with 20 μL 45 mM EDTA, 300 nM SA-APC, 6 nM Eu-Py20 in assay buffer (Perkin Elmer, Boston, Mass.). Binding to the Europium labeled antibody took place for 40 minutes and HTRF signal was measured on a Fusion plate reader (Perkin Elmer, Boston, Mass.).

JAK1 (IL-6) = test: PK derived JAK1 (IL-6) inhibition by dose regimen
Description: (§1) It is believed that this efficacy/side-effect profile may be due to the QD dose achieving maximal JAK1 signaling (tied to efficacy) with low JAK2 inhibition at the trough, as JAK2 signaling is tied to hematopoiesis. This hypothesis is supported by the PK derived JAK1 (IL-6) and JAK2 (TPO) inhibition data for the compound of Formula at various doses (Table 7).

JAK2 (TPO) = test: PK derived JAK2 (TPO) inhibition by dose regimen
Description: as §1

[2] = system: patients with plaque psoriasis; test: Placebo controlled study in plaque psoriasis, 28 days (sPGA, PASI 50); assay type: in vivo, human
Protocol: A double-blind (sponsor unblinded), randomized, placebo controlled study was conducted in approximately 48 subjects treated for 28 days. Eligibility requirements included: active plaque psoriasis for at least 6 months at screening; body surface area (BSA) of plaque psoriasis of ≥5%; psoriasis area and severity index (PASI) score of ≥5; static physician's global assessment (sPGA) score of ≥3; inadequate response to topical therapies; innovative design allowing rapid progress between doses, with conservative safety assessment. […] Once the 4th subject (block of 3 active 1 PBO) completed 28 days administration without a Grade 3 or higher AE, the next group of 12 subjects initiated treatment with the next highest dose; while the first 4 subjects in this group are treated for 28 days, the 1st group is filled 60 subjects with moderate to severe psoriasis were randomized. […] A sequential method of recruitment was used, increasing from the lowest dose to the highest, each after the completion of 28 days for the first four subjects in the previous dose. The results at 28 days are show in Table 8 (PASI 50 is Psoriasis Area and Severity Index). […] The 5 mg tofacitinib dose is the approved dosage level for RA for safety reasons in the US.

psoriasis = conditions: 5 mg; 12 weeks; cited from earlier work
RA = conditions: 5 mg BID; 3 months; cited from earlier work

T1 sequence (P23458 849-1154): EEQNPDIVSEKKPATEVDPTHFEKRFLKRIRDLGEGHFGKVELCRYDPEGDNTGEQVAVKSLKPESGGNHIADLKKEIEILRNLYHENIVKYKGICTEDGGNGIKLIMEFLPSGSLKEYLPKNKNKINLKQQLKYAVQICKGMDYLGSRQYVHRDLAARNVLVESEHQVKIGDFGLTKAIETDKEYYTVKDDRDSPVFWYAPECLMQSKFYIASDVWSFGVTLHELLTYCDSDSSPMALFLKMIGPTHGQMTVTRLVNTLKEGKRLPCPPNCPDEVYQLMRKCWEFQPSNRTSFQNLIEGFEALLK

IC50 [1]: ≤ 5 nM
SMILES: N#CCC1(n2cc(-c3ncnc4[nH]ccc34)cn2)CN(C2CCN(C(=O)c3ccnc(C(F)(F)F)c3F)CC2)C1 [compound of Formula I, {1-{1-[3-fluoro-2-(trifluoromethyl)isonicotinoyl]piperidin-4-yl}-3-[4-(7H-pyrrolo[2,3-d]pyrimidin-4-yl)-1H-pyrazol-1-yl]azetidin-3-yl}acetonitrile]
Average IL-6 inhibition (JAK1 (IL-6); 100 mg BID): 44%
Trough IL-6 inhibition (JAK1 (IL-6); 100 mg BID): 22%
Average IL-6 inhibition (JAK1 (IL-6); 100 mg QD): 30%
Trough IL-6 inhibition (JAK1 (IL-6); 100 mg QD): 7%
Average IL-6 inhibition (JAK1 (IL-6); 200 mg BID): 64%
Trough IL-6 inhibition (JAK1 (IL-6); 200 mg BID): 52%
Average IL-6 inhibition (JAK1 (IL-6); 200 mg QD): 39%
Trough IL-6 inhibition (JAK1 (IL-6); 200 mg QD): 11%
Average IL-6 inhibition (JAK1 (IL-6); 300 mg QD): 47%
Trough IL-6 inhibition (JAK1 (IL-6); 300 mg QD): 16%
Average IL-6 inhibition (JAK1 (IL-6); 400 mg BID): 69%
Trough IL-6 inhibition (JAK1 (IL-6); 400 mg BID): 56%
Average IL-6 inhibition (JAK1 (IL-6); 600 mg QD): 61%
Trough IL-6 inhibition (JAK1 (IL-6); 600 mg QD): 31%
Average TPO inhibition (JAK2 (TPO); 100 mg BID): 11%
Trough TPO inhibition (JAK2 (TPO); 100 mg BID): 2%
Average TPO inhibition (JAK2 (TPO); 100 mg QD): 7%
Trough TPO inhibition (JAK2 (TPO); 100 mg QD): <1%
Average TPO inhibition (JAK2 (TPO); 200 mg BID): 24%
Trough TPO inhibition (JAK2 (TPO); 200 mg BID): 13%
Average TPO inhibition (JAK2 (TPO); 200 mg QD): 11%
Trough TPO inhibition (JAK2 (TPO); 200 mg QD): <1%
Average TPO inhibition (JAK2 (TPO); 300 mg QD): 18%
Trough TPO inhibition (JAK2 (TPO); 300 mg QD): 1%
Average TPO inhibition (JAK2 (TPO); 400 mg BID): 33%
Trough TPO inhibition (JAK2 (TPO); 400 mg BID): 16%
Average TPO inhibition (JAK2 (TPO); 600 mg QD): 36%
Trough TPO inhibition (JAK2 (TPO); 600 mg QD): 4%
% PASI 50 ([2]; 100 mg BID (as headed)): 22.2%
% sPGA (clear or minimal) ([2]; 100 mg BID (as headed)): 11.1%
Mean % change sPGA ([2]; 100 mg BID (as headed)): −22.2%
% PASI 50 ([2]; 200 mg BID): 44.4%
% sPGA (clear or minimal) ([2]; 200 mg BID): 33.3%
Mean % change sPGA ([2]; 200 mg BID): −35.2%
% PASI 50 ([2]; 200 mg QD): 66.7%
% sPGA (clear or minimal) ([2]; 200 mg QD): 22.2%
Mean % change sPGA ([2]; 200 mg QD): −29.4%
% PASI 50 ([2]; 600 mg QD): 81.8%
% sPGA (clear or minimal) ([2]; 600 mg QD): 45.5%
Mean % change sPGA ([2]; 600 mg QD): −42.4%

SMILES: C[C@@H]1CCN(C(=O)CC#N)C[C@@H]1N(C)c1ncnc2[nH]ccc12.O=C(O)CC(O)(CC(=O)O)C(=O)O [tofacitinib citrate]
PASI 50 score (psoriasis): 65.3%
ACR20 (RA): 59%
ACR50 (RA): 31%
ACR70 (RA): 15%
